Reference: US6479548B2, “Substituted stilbenes as glucose uptake enhancers” (Telik, Inc., priority 2000, dated 2002)

target: T1, complete β-kinase domain of the human insulin receptor (CKD) (Homo sapiens, UniProt P06213); assay: 32P-CKD autophosphorylation assay; assay type: biochemical; details: 10 min; compound at 10 μM; phosphorylation of CKD expressed as % of the vehicle level; read-out: Activity (% vs. control)
T1 construct: The complete β-kinase domain of the human insulin receptor (CKD); made in house
Description: The complete β-kinase domain of the human insulin receptor (CKD) was expressed in, and purified from, baculovirus. CKD (4.0 μg/ml), in a solution of 29 mM HEPES (pH 7.6), 0.05% Triton X-100, 10 mM MgCl2, 2 mM MnCl2 (50 μl final volume), is combined with 50 μM ATP, and 5 μCi ^32P-ATP (3000 Ci/mmol).

T1 sequence (P06213 1023-1298 limits assumed): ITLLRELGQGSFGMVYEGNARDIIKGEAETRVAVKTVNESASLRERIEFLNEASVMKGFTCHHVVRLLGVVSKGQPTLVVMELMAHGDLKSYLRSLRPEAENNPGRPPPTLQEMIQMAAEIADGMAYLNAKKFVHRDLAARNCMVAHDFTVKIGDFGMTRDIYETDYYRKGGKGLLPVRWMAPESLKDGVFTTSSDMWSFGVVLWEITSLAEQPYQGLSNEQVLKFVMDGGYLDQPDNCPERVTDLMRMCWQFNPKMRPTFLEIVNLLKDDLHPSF

Row | Compound | activity at 10 µM [%]
1 | COC(=O)c1ccc(C(=O)N(C)c2ccc(C(=O)Nc3ccc(/C=C/c4ccc(F)cc4)cc3C(=O)OC)cc2)cc1 [Compound 34, methyl 4-{N-[4-(N-{4-[(1E)-2-(4-fluorophenyl)vinyl]-2-(methoxycarbonyl)phenyl}-carbamoyl)phenyl]-N-methylcarbamoyl}benzoate] | 88
2 | CC(=O)N(c1ccc(/C=C/c2ccc(OC(C)(C)C)c(C(=O)O)c2)cc1)c1ccc(N(C(C)=O)c2ccc(C(=O)O)cc2)cc1 [Compound 50, 5-{(1E)-2-[4-({4-[(4-carboxyphenyl)-N-methylcarbonylamino]phenyl}-N-methyl-carbonylamino)phenyl]vinyl}-2-(tert-butoxy)benzoic acid] | 105
3 | COC(=O)c1ccc(/C=C/c2ccc(NC(=O)c3ccc(N(C)C(=O)c4ccc(C(=O)OC)cc4)cc3)cc2)cc1 [Compound 44, methyl 4-(N-{4-[N-(4-{(1E)-2-[4-(methoxycarbonyl)phenyl]vinyl}phenyl)-carbamoyl]phenyl}-N-methylcarbamoyl)benzoate] | 97
4 | COC(=O)c1ccc(N(C(C)=O)c2ccc(C(=O)Nc3ccc(/C=C/c4ccccc4)c(C(=O)O)c3)cc2)cc1 [Compound 39, 2-((1E)-2-phenylvinyl)-5-[(4-{[4-(methoxycarbonyl)phenyl]-N-methylcarbonyl-amino}phenyl)carbonylamino]benzoic acid] | 64
5 | O=C(O)COc1cc(OCC(=O)O)cc(C(=O)Nc2ccc(/C=C/c3ccccc3)cc2C(=O)O)c1 [Compound 59, 5-((1E)-2-phenylvinyl)-2-{[3,5-bis(carboxymethoxy)phenyl]carbonylamino}benzoic acid] | 94
6 | O=C(O)c1ccc(COc2cc(OCc3ccc(C(=O)O)cc3)cc(C(=O)Nc3ccc(/C=C/c4ccccc4)cc3C(=O)O)c2)cc1 [Compound 60, 5-((1E)-2-phenylvinyl)-2-({3,5-bis[(4-carboxyphenyl)methoxy]phenyl}carbonyl-amino)benzoic acid] | 80
7 | COC(=O)c1ccc(N(C(C)=O)c2ccc(C(=O)Nc3ccc(/C=C/c4ccc(S(=O)(=O)O)cc4)cc3C(=O)OC)cc2)cc1 [Compound 36, 4-((1E)-2-{3-(methoxycarbonyl)-4-[(4-{[4-(methoxycarbonyl)phenyl]-N-methyl-carbonylamino}phenyl)carbonylamino]phenyl}vinyl)benzenesulfonic acid] | 171
8 | COC(=O)c1ccc(N(C(C)=O)c2ccc(C(=O)Nc3ccc(/C=C/c4cccc(CC(=O)O)c4)cc3)cc2)cc1 [Compound 46, 2-[3-((1E)-2-{4-[(4-{[4-(methoxycarbonyl)phenyl]-N-methylcarbonylamino}-phenyl)carbonylamino]phenyl}vinyl)phenyl]acetic acid] | 91
9 | COC(=O)c1ccc(C(=O)N(C)c2ccc(C(=O)Nc3ccc(/C=C/c4ccccc4F)cc3C(=O)OC)cc2)cc1 [Compound 32, methyl 4-{N-[4-(N-{4-[(1E)-2-(2-fluorophenyl)vinyl]-2-(methoxycarbonyl)phenyl}-carbamoyl)phenyl]-N-methylcarbamoyl}benzoate] | 81
10 | COC(=O)c1ccc(C(=O)N(C)c2ccc(C(=O)Nc3ccc(/C=C/c4cccc(F)c4)cc3C(=O)OC)cc2)cc1 [Compound 37, methyl 4-{N-[4-(N-{4-[(1E)-2-(3-fluorophenyl)vinyl]-2-(methoxycarbonyl)phenyl}-carbamoyl)phenyl]-N-methylcarbamoyl}benzoate] | 93
11 | CC(=O)N(c1ccc(C(=O)O)cc1)c1ccc(C(=O)Nc2ccc(/C=C/c3ccccc3F)cc2C(=O)O)cc1 [Compound 33, 5-[(1E)-2-(2-fluorophenyl)vinyl]-2-({4-[(4-carboxyphenyl)-N-methylcarbonyl-amino]phenyl}carbonylamino)benzoic acid] | 78
12 | CC(=O)N(c1ccc(C(=O)O)cc1)c1ccc(C(=O)Nc2ccc(/C=C/c3ccc(F)cc3)cc2C(=O)O)cc1 [Compound 35, 5-[(1E)-2-(4-fluorophenyl)vinyl]-2-({4-[(4-carboxyphenyl)-N-methylcarbonyl-amino]phenyl}carbonylamino)benzoic acid] | 177
13 | COC(=O)c1ccc(N(C(C)=O)c2ccc(N(C(C)=O)c3ccc(/C=C/c4ccc(OC(C)(C)C)c(C(=O)O)c4)cc3)cc2)cc1 [Compound 49, 5-((1E)-2-{4-[(4-{[4-(methoxycarbonyl)phenyl]-N-methylcarbonylamino}phenyl)-N-methylcarbonylamino]phenyl}vinyl)-2-(tert-butoxy)benzoic acid] | 81

Results, then the molecule that gave them:

Row | activity at 10 µM [%] | Compound
14 | 105 | COc1ccc(C(=O)Nc2ccc(/C=C/c3ccccc3)cc2C(=O)O)cc1OC [Compound 53, 5-((1E)-2-phenylvinyl)-2-[(3,4-dimethoxyphenyl)carbonylamino]benzoic acid]
15 | 75 | COc1ccc(/C=C/c2ccc(N(C)C(=O)c3ccccc3)c(C(=O)O)c2)cc1 [Compound 28, 5-[(1E)-2-(4-methoxyphenyl)vinyl]-2-(N-methylphenylcarbonylamino)benzoic acid]
16 | 73 | COC(=O)c1cc(/C=C/c2ccccc2)ccc1NC(=O)c1ccccc1 [Compound 27, methyl 5-((1E)-2-phenylvinyl)-2-[phenylcarbonylamino)benzoate]
17 | 105 | O=C(Nc1ccc(/C=C/c2ccccc2)c(C(=O)O)c1)c1ccccc1 [Compound 38, 2-((1E)-2-phenylvinyl)-5-(phenylcarbonylamino)benzoic acid]
18 | 121 | COc1ccc(/C=C/c2ccc(NC(=O)c3ccc(N(C(C)=O)c4ccc(C(=O)O)cc4)cc3)c(C(=O)O)c2)cc1 [Compound 31, 5-[(1E)-2-(4-methoxyphenyl)vinyl]-2-({4-[(4-carboxyphenyl)-N-methylcarbonyl-amino]phenyl}carbonylamino)benzoic acid]
19 | 123 | COc1cccc(C(=O)Nc2ccc(/C=C/c3ccccc3)cc2C(=O)O)c1 [Compound 42, 5-((1E)-2-phenylvinyl)-2-[(3-methoxyphenyl)carbonylamino]benzoic acid]
20 | 61 | COC(=O)c1ccc(C(=O)N(C)c2ccc(C(=O)Nc3ccc(/C=C/c4ccc(OC)cc4)cc3C(=O)OC)cc2)cc1 [Compound 29, methyl 4-{N-[4-(N-{4-[(1E)-2-(4-methoxyphenyl)vinyl]-2-(methoxycarbonyl)-phenyl}carbamoyl)phenyl]-N-methylcarbamoyl}benzoate]
21 | 117 | COc1cccc(C(=O)Nc2ccc(/C=C/c3ccccc3)cc2CC(=O)O)c1 [Compound 55, 2-{5-((1E)-2-phenylvinyl)-2-[(3-methoxyphenyl)carbonylamino]phenyl}acetic acid]
22 | 93 | COC(=O)c1ccc(N(C(C)=O)c2ccc(C(=O)Nc3ccc(/C=C/c4ccc(OC)cc4)cc3C(=O)O)cc2)cc1 [Compound 30, 5-[(1E)-2-(4-methoxyphenyl)vinyl]-2-[(4-{[4-(methoxycarbonyl)phenyl]-N-methyl-carbonylamino}phenyl)carbonylamino]benzoic acid]
23 | 107 | COc1ccc(/C=C/c2ccc(N(Cc3ccc(C(=O)O)cc3)C(=O)c3ccc(N(C(C)=O)c4ccc(C(=O)O)cc4)cc3)c(C(=O)O)c2)cc1 [Compound 57, 5-[(1E)-2-(4-methoxyphenyl)vinyl]-2-(N-[(4-carboxyphenyl)methyl]{4-[(4-carboxy-phenyl)-N-methylcarbonylamino]phenyl}carbonylamino)benzoic acid]
24 | 107 | COc1cc(C(=O)Nc2ccc(/C=C/c3ccccc3)cc2C(=O)O)cc(OC)c1OC [Compound 26, 5-((1E)-2-phenylvinyl)-2-[(3,4,5-trimethoxyphenyl)carbonylamino]benzoic acid]
25 | 54 | COC(=O)c1cc(/C=C/c2ccccc2)ccc1NC(=O)c1ccc(OC)c(OC)c1 [Compound 52, methyl 5-((1E)-2-phenylvinyl)-2-[(3,4-dimethoxyphenyl)carbonylamino]benzoate]
26 | 59 | CN(C(=O)c1ccccc1)c1ccc(/C=C/c2ccccc2)cc1C(=O)O [Compound 25, 5-((1E)-2-phenylvinyl)-2-(N-methylphenylcarbonylamino)benzoic acid]
27 | 80 | O=C(Nc1ccc(/C=C/c2ccccc2)cc1C(=O)O)c1cc(O)cc(O)c1 [Compound 41, 5-((1E)-2-phenylvinyl)-2-[(3,5-dihydroxyphenyl)carbonylamino]benzoic acid]

same assay, conditions: compound at 10 μM; phosphorylation of CKD expressed as % of the vehicle level

Row | Activity (% vs. control) [%] | Compound
28 | 51 | COc1ccc(/C=C/c2ccc(NC(=O)c3ccc4c(c3)OCO4)cc2)cc1 [Compound 56, N-{4-[(1E)-2-(4-methoxyphenyl)vinyl]phenyl}-2H-benzo[d]1,3-dioxolen-5-yl-carboxamide]
